Entries after “also recorded” stand apart in the source; their conditions may differ. Where two headings read alike, the source gives them in different places.

The test system of one experiment is isolated mitochondria. Kind of experiment: AIF binding to isolated mitochondria. The procedure: One commonly accepted estimate is that approximately 20%-30% of AIF resides on the cytosolic side of the outer membrane of mitochondria, where it is poised to be rapidly released by PAR following PARP-1 activation. Applicants thus wanted to perform tests of AIF binding to mitochondria determine how readily purified WT-AIF and Pbm-AIF bind to mitochondria in a time- and concentration-dependent manner. Specifically, recombinant WT-AIF (2.5 ng/μl) and Pbm-AIF (2.5 ng/μl) were incubated with isolated mitochondria (200 μg/ml) for 1 minute, 5 minutes, 10 minutes, 15 minutes, 20 minutes or 30 minutes. […] The results of this portion of the experiment is provided by the graph of FIG. 15B.
To investigate the mechanism underlying mitochondrial AIF release following PARP-1 activation, Applicants incubated isolated mitochondria with purified non-tagged forms of AIF in the presence or absence of PAR and followed this by centrifugation to remove the mitochondria. Detection of AIF remaining in the supernatant was thereafter performed through immunoblot analysis.
The supernatant collected in the experiments of Example 16 were also analyzed for the presence of Tom20 and cyclochrome c.

Experiment [1] relates to PAR. Kind of experiment: dot-blot assay of AIF peptides with 32P-labeled PAR. As to conditions: for binding to 32P-labeled automodified PARP-1 or 32P-labeled purified PAR: peptides spanning only amino acids 567-592; for binding to PAR: peptides, 100 nM purified 32P-labeled PAR. It is filed as binding. Here is the method:
To determine whether these putative binding sites are in fact responsible for AIF binding to PAR, Applicants performed a dot-blot assay with peptides corresponding to these motifs in the presence of 100 nM purified ^32P-labeled PAR. FIG. 5 comprises black and white photos of representative dot-blot assay for full length WT-AIF, three AIF peptides formed from identified portions of AIFm, histone H3, and BSA in presence of 100 nM purified ^32P-labeled PAR.
(§1) Applicants thereafter repeated the experiments using both wild type and mutant AIFm peptides spanning only amino acids 567-592 instead of full length AIFm and obtained results consistent with those using full-length AIF. […] The double amino acid mutant Dm (corresponding to only amino acids 567-592 of AIF-Dm so as to consist of SEQ. ID NO. 16) bound PAR. […] Thus, it is preferred in embodiments of the invention when conducting genetic manipulations to convert at least three target basic amino acids in the PBM to hydrophobic amino acids.

Experiment [2] has as its system PAR. In words: nitrocellulose saturation binding experiments.
Excerpt: as §1
The PAR polymer binding properties of the mutant Pbm-AIF was then measured using full-length recombinant His-WT-AIF and His tagged Pbm-AIF (“His-Pbm-AIF”) via a series of nitrocellulose saturation binding experiments. Similar experiments were also conducted for the shorter peptides Dm and Tm in comparison to WT. FIG. 10B through FIG. 10D comprise charts reporting data from these various experiments. With regard to the shorter peptides, Applicants determined that the binding affinity constant (“Kd”) and maximum binding capacity (“Bmax”) of these AIF mimetic peptides and the results are reported in the chart of FIG. 10B. […] FIG. 10D comprises a Scatchard plot (95% confidence interval) of the results.

The next experiment deals with DNA. Kind of experiment: DNA retardation assay. It is filed as binding. As to conditions: DNA (200 ng), 30 minutes. Here is the method: AIF binding-mediated DNA mobility retardation was performed as described by H. Cande et al. (Nat Struct Biol, 2002). Recombinant His-tagged AIF (10 μg or 25 μg) was incubated with 1 kb DNA molecular weight marker (obtained from Fermentas) for 30 minutes at room temperature and loaded on 2.5% agarose gel prestained with ethidium bromide (1 μg/ml). Mobility shift was visualized under the Alpha Innotech UV illuminator.
Further, a DNA retardation assay of His-WT-AIF and His-Pbm-AIF was conducted by incubating both with DNA (200 ng) for 30 minutes, using BSA as a negative control.

In experiment [3] the test system is PAR. Kind of experiment: PAR overlay assay of full length AIF and mutants. It is filed as binding. The procedure:
The following experiment was performed to confirm whether AIF in fact binds to PAR. Applicants performed 3 trials of an overlay assay on recombinant AIF with affinity-purified biotin-labeled PAR. Histone H3, which binds to PAR with high affinity, was included as a positive control and bovine serum albumin (“BSA”) was included as a negative control, as described by P. Chang et al. (Nat Cell Bio, 2005). FIG. 1B depicts three photos side by side for gels representative of all trials for these overlay assays. […] Thus, Applicants took the results of these two tests as confirming that AIF binds to PAR in vitro.
To further study these potential AIF PBMs, Applicants performed the following experiment to examine the effect of mutating AIFm amino acids 222-244, 441-463, and/or 567-592 to poly-alanine on the ability of AIF to bind PAR. FIG. 6 comprises black and white photographs of representative gels from an overlay assay of His-tagged WT-AIF, AIFm222-244, AIFm441-463, AIFm567-592, AIFΔ567-592 (i.e., a mutant lacking AAs 567-592), and AIF(K254A, R264A) (i.e., mutating K to A at 254 and R to A at 264) mutants with ^32P-labeled automodified PARP-1 (equivalent to 100 nM of PAR), purified ^32P-labeled PAR (100 nM), or purified ^32P-labeled PAR with either a 100-fold excess of DNA or cold PAR. […] The same can be assumed to corresponding sequences for other species, such as those identified in FIG. 4.
Additionally, to exclude the possibility that PAR polymer is binding to AIF through its DNA-binding domain, PAR polymer binding was assessed against the full length AIF DNA-binding mutant AIFK254A;R264A as described by H Cande et al. (Nat Struct Biol, 2002).
Finally, Human AIF (“AIFH”) is known to bind to DNA through a groove between the FAD-binding domain (“D1”) and C-terminal domain (“D3”). A mutant form of AIFH in which lysine 255 is substituted with alanine and arginine 265 is substituted with alanine (AIFK255A;R265A) completely lacks DNA binding. To investigate the possible contribution of the AIF DNA-binding domain to PAR binding, Applicants assessed PAR binding to AIFm mutated in the same way (AIFK254A;R264A). […] Thus, Applicants concluded that the AIF PAR-binding site is separable from its DNA-binding site, meaning that such binding could be inhibited by genetically modifying AIF without impacting the natural DNA binding capabilities of AIF or potentially by otherwise inhibiting the binding action of the PBMs.

[4] abbreviates: PAR binding, saturation binding.
The mark [5] stands for this setting: PAR binding, saturation binding, ligand binding program of Sigma plot, read-out: Kd.

In the case of “Poly(ADP-ribose) [PAR, reference compound]”, the “release of endogenous cytochrome c from mitochondria” value in the experiment with isolated mitochondria (5 nM and 50 nM PAR) is “failed to induce the release of endogenous cytochrome c”; in the experiment with isolated mitochondria (100 nM PAR) it was “a weak cytochrome c signal could be detected”. The “Tom20 in the supernatant (mitochondrial integrity)” value in the experiment on isolated mitochondria (any concentration of PAR used) is recorded as “could not be detected in the supernatant”.

On to “amino acids 567-592 of AIF-Dm, SEQ. ID NO. 16 LRDKVVVGIVLWNVFNRMPIAAAIIK (mouse) [Dm peptide]”, for which the “binding to 32P-labeled automodified PARP-1 or 32P-labeled purified PAR” value in the experiment with PAR [1] is reported as “bound PAR”. For the same molecule, in the experiment on PAR [2] (setting [4]), the Bmax was 3.97 pmol. In addition, the Kd (commonly the concentration at which binding is half-saturated) at PAR [2] (setting [5]) came out at 3300 nM.

For the molecule “amino acids 567-592 of AIF-Tm, SEQ. ID NO. 17 LRDKVVVGIVLWNVFNRMPIAAAIIA (mouse) [Tm peptide]”, in the experiment on PAR [1], the “binding to 32P-labeled automodified PARP-1 or 32P-labeled purified PAR” value is on record as “failed to bind”. The molecule also gave a Bmax in the experiment on PAR [2] (setting [4]) of 1.77 pmol. The Kd on PAR [2] (setting [5]) was 107000 nM. Also, in the experiment on PAR [2] (result in words), the “PAR binding in saturation binding experiments” value was “clearly reduced PAR binding”.

As for “peptide composed of AIFm amino acids 222-244: peptide of mouse AIF amino acids 222-244, SEQ. ID NO. 1 (GGVAVLTGKKVVHLDVRGNMVKL; mouse)”, in the experiment with PAR [1], the “binding to PAR” value was “bound less well”.

With “peptide composed of AIFm amino acids 441-463: peptide of mouse AIF amino acids 441-463, SEQ. ID NO. 5 (FYDIKLGRRRVEHHDHAVVSGRL; mouse)”, the “binding to PAR” value with PAR [1] is on record as “failed to bind PAR appreciably”.

Take “peptide of amino acids 567-592 of mouse AIF, SEQ. ID NO. 10 LRDKVVVGIVLWNVFNRMPIARKIIK (mouse) [WT peptide]”: the Bmax was 4.57 pmol in the experiment with PAR [2] (setting [4]) and 4.55 pmol in the experiment on PAR [2] (PAR binding, saturation binding, listed as AIFm567-592 peptide).

B1: His-WT-AIF: full-length recombinant His-tagged wild type mouse AIF (protein)
chain: MFRCGGLAGAFKQKLVPLVRTVYVQRPKQRNRLPGNLFQQWRVPLELQMARQMASSGSSGGKMDNSVLVLIVGLSTIGAGAYAYKTIKEDQKRYNERVMGLGLSPEEKQRRAIASATEGGSVPQIRAPSHVPFLLIGGGTAAFAAARSIRARDPGARVLIVSEDPELPYMRPPLSKELWFSDDPNVTKTLQFRQWNGKERSIYFQPPSFYVSAQDLPNIENGGVAVLTGKKVVHLDVRGNMVKLNDGSQITFEKCLIATGGTPRSLSAIDRAGAEVKSRTTLFRKIGDFRALEKISREVKSITVIGGGFLGSELACALGRKSQASGIEVIQLFPEKGNMGKILPQYLSNWTMEKVKREGVKVMPNAIVQSVGVSGGRLLIKLKDGRKVETDHIVTAVGLEPNVELAKTGGLEIDSDFGGFRVNAELQARSNIWVAGDAACFYDIKLGRRRVEHHDHAVVSGRLAGENMTGAAKPYWHQSMFWSDLGPDVGYEAIGLVDSSLPTVGVFAKATAQDNPKSATEQSGTGIRSESETESEASEITIPPSAPAVPQVPVEGEDYGKGVIFYLRDKVVVGIVLWNVFNRMPIARKIIKDGEQHEDLNEVAKLFNIHED
modifications: left off: small tags and cut ends
As to B1, the DNA-binding properties result with DNA is on record as “comparable”. In addition, the Bmax in the experiment on PAR [2] (setting [4]) stood at 200.83 pmol; in the experiment with PAR [2] (specific binding (His-Pbm-AIF values subtracted), Scatchard analysis) it was 116.208 pmol. In addition, the Kd on PAR [2] (setting [5]) was 100 nM; on PAR [2] (specific binding (His-Pbm-AIF values subtracted), Scatchard analysis, read-out: calculated Kd), 66.3 nM.

B2: AIFK254A;R264A: full length mouse AIF DNA-binding mutant, K to A at 254 and R to A at 264 (protein)
chain: MFRCGGLAGAFKQKLVPLVRTVYVQRPKQRNRLPGNLFQQWRVPLELQMARQMASSGSSGGKMDNSVLVLIVGLSTIGAGAYAYKTIKEDQKRYNERVMGLGLSPEEKQRRAIASATEGGSVPQIRAPSHVPFLLIGGGTAAFAAARSIRARDPGARVLIVSEDPELPYMRPPLSKELWFSDDPNVTKTLQFRQWNGKERSIYFQPPSFYVSAQDLPNIENGGVAVLTGKKVVHLDVRGNMVKLNDGSQITFEACLIATGGTPASLSAIDRAGAEVKSRTTLFRKIGDFRALEKISREVKSITVIGGGFLGSELACALGRKSQASGIEVIQLFPEKGNMGKILPQYLSNWTMEKVKREGVKVMPNAIVQSVGVSGGRLLIKLKDGRKVETDHIVTAVGLEPNVELAKTGGLEIDSDFGGFRVNAELQARSNIWVAGDAACFYDIKLGRRRVEHHDHAVVSGRLAGENMTGAAKPYWHQSMFWSDLGPDVGYEAIGLVDSSLPTVGVFAKATAQDNPKSATEQSGTGIRSESETESEASEITIPPSAPAVPQVPVEGEDYGKGVIFYLRDKVVVGIVLWNVFNRMPIARKIIKDGEQHEDLNEVAKLFNIHED
modifications: left off: small tags and cut ends
On to B2, for which, in the experiment on PAR [3] (His-tagged proteins, overlay assay, 100 nM PAR), the “binding to 32P-labeled automodified PARP-1 or purified 32P-labeled PAR” value is “still substantially binds; also recorded: bound to ^32P-labeled automodified PARP-1 and purified ^32P-labeled PAR”. Also, the “effect of hundred fold excess of salmon sperm DNA on PAR binding” value in the experiment with PAR [3] (overlay assay, 32P-labeled PAR) is recorded as “fails to disrupt”. The “effect of salmon sperm DNA on PAR binding” value in the experiment with PAR [3] (salmon sperm DNA at 760 μM) is “failed to disrupt PAR binding”.

The record behind these values is patent US20120122765A1, “COMPOUNDS AND RELATED METHODS FOR MANIPULATING PARP-1-DEPENDENT CELL DEATH” (priority 2010, published 2012).
